Test results published in ChEMBL document CHEMBL3045319, “Synthesis, antitumor activity, and structureactivity relationship of some 4H-pyrano[3,2-h]quinoline and 7H-pyrimido[4,5:6,5]pyrano[3,2-h]quinoline derivatives” (Med Chem Res, 2013).
In brackets after ≈: the same amount, converted by molar mass.

Key:
[1] = tested on: HepG2; assay: Cytotoxicity against Homo sapiens (human) HepG2 cells assessed as cell viability at 50 ug/ml after 48 hr by MTT assay relative to control; format: functional; settings: HepG2, 48 h, read-out: Activity
[2] = Cytotoxicity against Homo sapiens (human) HCT cells assessed as cell viability at 1.56 ug/ml after 48 hr by MTT assay relative to control; format: functional; settings: read-out: Activity
[3] = Cytotoxicity against Homo sapiens (human) HCT cells assessed as cell viability at 12.5 ug/ml after 48 hr by MTT assay relative to control; format: functional; settings: read-out: Activity
[4] = tested on: HepG2; assay: Cytotoxicity against Homo sapiens (human) HepG2 cells assessed as cell viability at 3.125 ug/ml after 48 hr by MTT assay relative to control; format: functional; settings: HepG2, 48 h, read-out: Activity
[5] = tested on: MCF7; assay: Cytotoxicity against Homo sapiens (human) MCF7 cells assessed as cell viability at 1.56 ug/ml after 48 hr by MTT assay relative to control; format: functional; settings: MCF7, 48 h, read-out: Activity
[6] = Cytotoxicity against Homo sapiens (human) HCT cells assessed as cell viability at 3.125 ug/ml after 48 hr by MTT assay relative to control; format: functional; settings: read-out: Activity
[7] = tested on: MCF7; assay: Cytotoxicity against Homo sapiens (human) MCF7 cells assessed as cell viability at 6.25 ug/ml after 48 hr by MTT assay relative to control; format: functional; settings: MCF7, 48 h, read-out: Activity
[8] = tested on: MCF7; assay: Cytotoxicity against Homo sapiens (human) MCF7 cells assessed as cell viability at 25 ug/ml after 48 hr by MTT assay relative to control; format: functional; settings: MCF7, 48 h, read-out: Activity
[9] = tested on: MCF7; assay: Cytotoxicity against Homo sapiens (human) MCF7 cells after 48 hr by MTT assay; format: functional, cell-based; settings: MCF7, 48 h
[10] = tested on: HepG2; assay: Cytotoxicity against Homo sapiens (human) HepG2 cells assessed as cell viability at 25 ug/ml after 48 hr by MTT assay relative to control; format: functional; settings: HepG2, 48 h, read-out: Activity
[11] = tested on: MCF7; assay: Cytotoxicity against Homo sapiens (human) MCF7 cells assessed as cell viability at 12.5 ug/ml after 48 hr by MTT assay relative to control; format: functional; settings: MCF7, 48 h, read-out: Activity
[12] = Cytotoxicity against Homo sapiens (human) HCT cells assessed as cell viability at 50 ug/ml after 48 hr by MTT assay relative to control; format: functional; settings: read-out: Activity
[13] = tested on: MCF7; assay: Cytotoxicity against Homo sapiens (human) MCF7 cells assessed as cell viability at 3.125 ug/ml after 48 hr by MTT assay relative to control; format: functional; settings: MCF7, 48 h, read-out: Activity
[14] = Cytotoxicity against Homo sapiens (human) HCT cells assessed as cell viability at 6.25 ug/ml after 48 hr by MTT assay relative to control; format: functional; settings: read-out: Activity
[15] = Cytotoxicity against Homo sapiens (human) HCT cells after 48 hr by MTT assay; format: functional, cell-based
[16] = Cytotoxicity against Homo sapiens (human) HCT cells assessed as cell viability at 25 ug/ml after 48 hr by MTT assay relative to control; format: functional; settings: read-out: Activity
[17] = tested on: HepG2; assay: Cytotoxicity against Homo sapiens (human) HepG2 cells after 48 hr by MTT assay; format: functional, cell-based; settings: Homo sapiens, HepG2, 48 h; read-out: IC50
[18] = tested on: HepG2; assay: Cytotoxicity against Homo sapiens (human) HepG2 cells assessed as cell viability at 12.5 ug/ml after 48 hr by MTT assay relative to control; format: functional; settings: HepG2, 48 h, read-out: Activity
[19] = tested on: HepG2; assay: Cytotoxicity against Homo sapiens (human) HepG2 cells assessed as cell viability at 1.56 ug/ml after 48 hr by MTT assay relative to control; format: functional; settings: HepG2, 48 h, read-out: Activity
[20] = tested on: MCF7; assay: Cytotoxicity against Homo sapiens (human) MCF7 cells assessed as cell viability at 50 ug/ml after 48 hr by MTT assay relative to control; format: functional; settings: MCF7, 48 h, read-out: Activity
[21] = tested on: HepG2; assay: Cytotoxicity against Homo sapiens (human) HepG2 cells assessed as cell viability at 6.25 ug/ml after 48 hr by MTT assay relative to control; format: functional; settings: HepG2, 48 h, read-out: Activity

SMILES	viability at 50 µg/mL [1] [%]	viability at 1.56 µg/mL [2] [%]	viability at 12.5 µg/mL [3] [%]	viability at 3.125 µg/mL [4] [%]	viability at 1.56 µg/mL [5] [%]	viability at 3.125 µg/mL [6] [%]	viability at 6.25 µg/mL [7] [%]	viability at 25 µg/mL [8] [%]	IC50 [9] [µg/mL]	viability at 25 µg/mL [10] [%]	viability at 12.5 µg/mL [11] [%]	viability at 50 µg/mL [12] [%]	viability at 3.125 µg/mL [13] [%]	viability at 6.25 µg/mL [14] [%]	IC50 [15] [µg/mL]	viability at 25 µg/mL [16] [%]	IC50 [17] [µg/mL]	viability at 12.5 µg/mL [18] [%]	viability at 1.56 µg/mL [19] [%]	viability at 50 µg/mL [20] [%]	further results
N#CC1=C(/N=C/c2ccccc2)Oc2c(ccc3cccnc23)C1c1ccc(Cl)cc1 (stereo not drawn)	18.6	38.5	14.8	48.9	55	30.2	40.8	33.3	2.8 (≈ 6.64 µM)	31.4	37.2	9.13	48.3	19.4	0.6 (≈ 1.42 µM)	11.6	2.8 (≈ 6.64 µM)	37.9	56.1	26.5	viability at 6.25 µg/mL [21]: 42.5%
CC(=O)NC1=C(C#N)C(c2ccc(Cl)cc2)c2ccc3ccc(C)nc3c2O1 (stereo not drawn)	23.8	96.4	53.3	89.7	96.3	85.2	76.8	54	38.6 (≈ 99 µM)	35.9	68.7	22	86.5	77.5	14.6 (≈ 37.5 µM)	42.5	17.8 (≈ 45.7 µM)	60.2	100	46.2	viability at 6.25 µg/mL [21]: 78.6%
CC(=O)NC1=C(C#N)C(c2ccc(Br)cc2)c2ccc3ccc(C)nc3c2O1 (stereo not drawn)	32.6	99.8	71.8	90.7	94.8	95.1	65.8	32.1	13.5 (≈ 31.1 µM)	51.2	51.2	22.5	79.9	86.8	21.3 (≈ 49 µM)	44.5	26.5 (≈ 61 µM)	68.6	98.8	23.4	viability at 6.25 µg/mL [21]: 81.6%
Nc1ncnc2c1C(c1ccc(Cl)cc1)c1ccc3cccnc3c1O2 (stereo not drawn)	64.3	83.1	62.1	90.4	100	78.6	81.2	68.8	44.6 (≈ 124 µM)	67.6	75.8	26.4	94.5	74.6	19.2 (≈ 53.2 µM)	42	> 50	73.3	94.4	45.4	viability at 6.25 µg/mL [21]: 83.3%
Cc1ccc2ccc3c(c2n1)Oc1ncnc(N)c1C3c1ccc(Cl)cc1 (stereo not drawn)	28.3	100	78.9	60.2	100	98.8	94.5	81.7	> 50	37	89.2	41.6	97.3	90.5	26.4 (≈ 70.4 µM)	51.1	6.3 (≈ 16.8 µM)	43.7	68.3	70.2	viability at 6.25 µg/mL [21]: 50.8%
CCO/C=N/C1=C(C#N)C(c2ccc(Cl)cc2)c2ccc3cccnc3c2O1 (stereo not drawn)	39.4	93.4	67.1	91	98.3	81.7	81.4	67.1	45.4 (≈ 116 µM)	57.1	74.2	23.9	93	73.3	25.7 (≈ 65.9 µM)	51.4	31.1 (≈ 79.8 µM)	72.3	97.6	43	viability at 6.25 µg/mL [21]: 86.6%
CCO/C=N/C1=C(C#N)C(c2ccc(Cl)cc2)c2ccc3ccc(C)nc3c2O1 (stereo not drawn)	45.2	75.5	26	96.4	96.1	54.9	76.6	48.6	23.8 (≈ 58.9 µM)	69	63.4	15.2	87.4	35.3	3.6 (≈ 8.91 µM)	18.4	44.5 (≈ 110 µM)	79.4	100	37.5	viability at 6.25 µg/mL [21]: 85.1%
CCO/C=N/C1=C(C#N)C(c2ccc(Br)cc2)c2ccc3ccc(C)nc3c2O1 (stereo not drawn)	34.6	81.9	34	94.6	98.1	62.9	87.6	67.4	> 50	62.9	79.2	19.8	95.4	46.5	5.8 (≈ 12.9 µM)	23.3	37.1 (≈ 82.8 µM)	76.4	100	56.6	viability at 6.25 µg/mL [21]: 83.3%
